Reference: PubChem BioAssay AID1247 (Sanford-Burnham Center for Chemical Genomics, 2008)
The source made the active and inactive calls.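 How the source made its calls: active means EC50 below a set limit, with activity reproduced on retest from dry powder; inactive means the rest.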

Test system: CSM 14.1 cells, thapsigargin ER-stress death rescue, ATPlite 24 h
Experiment: thapsigargin death rescue by analogs – CSM14.1 cells, ATP luminescence, benzodiazepine series, SAR follow-up (AID 1247)

Structure (SMILES)	EC50
CCCOc1ccc(C2Nc3ccccc3NC3=C2C(=O)CC(c2ccc(OC)c(OC)c2)C3)cc1 (configuration not stated)	16.2 µM
COc1ccc(C2CC(=O)C3=C(C2)Nc2ccccc2NC3c2cccc(Br)c2)cc1OC (configuration not stated)	16.9 µM
COc1ccc(C2CC(=O)C3=C(C2)Nc2ccccc2NC3c2ccccc2OC(C)C)cc1 (configuration not stated)	17.7 µM
COc1ccc(C2CC(=O)C3=C(C2)Nc2ccccc2NC3c2cc(C)ccc2C)cc1 (configuration not stated)	17.2 µM
CCCCOc1ccccc1C1Nc2ccccc2NC2=C1C(=O)CC(c1ccccc1)C2 (configuration not stated)	13.2 µM
COc1ccc(C2CC(=O)C3=C(C2)Nc2ccccc2NC3c2ccc3ccccc3c2)cc1 (configuration not stated)	11.5 µM
COc1ccc(C2CC(=O)C3=C(C2)Nc2ccccc2NC3c2c(Cl)cccc2Cl)cc1 (configuration not stated)	24.4 µM
COc1ccc(C2Nc3ccccc3NC3=C2C(=O)CC(c2ccc(Cl)cc2)C3)cc1 (configuration not stated)	11.1 µM
COc1ccc(C2CC(=O)C3=C(C2)Nc2ccccc2NC3c2cccc(Cl)c2)cc1 (configuration not stated)	20.7 µM
Cc1ccc(C2Nc3ccccc3NC3=C2C(=O)CC(c2ccccc2)C3)cc1 (configuration not stated)	19.2 µM
CCOc1cccc(C2Nc3ccccc3NC3=C2C(=O)CC(c2ccc(OC)cc2)C3)c1 (configuration not stated)	20.4 µM
COc1ccc(C2CC(=O)C3=C(C2)Nc2ccccc2NC3c2ccccc2C)cc1OC (configuration not stated)	35.8 µM
COc1ccc(C2CC(=O)C3=C(C2)Nc2ccccc2NC3c2cccc(O)c2)cc1 (configuration not stated)	> 100 µM (inactive)
COc1ccc(C2CC(=O)C3=C(C2)Nc2ccccc2NC3c2ccncc2)cc1OC (configuration not stated)	> 100 µM (inactive)
O=C1CC(c2ccccc2)CC2=C1C(c1c(F)cccc1Cl)Nc1ccccc1N2 (configuration not stated)	18.1 µM
COc1ccc(C2CC(=O)C3=C(C2)Nc2ccccc2NC3c2ccccc2Cl)cc1OC (configuration not stated)	40.3 µM
CCOc1cc(C2Nc3ccccc3NC3=C2C(=O)CC(c2ccc(OC)cc2)C3)cc(Br)c1O (configuration not stated)	18 µM
Cc1ccc(C2Nc3ccccc3NC3=C2C(=O)CC(c2ccc(Cl)cc2)C3)cc1 (configuration not stated)	9.76 µM
COc1ccc(C2CC(=O)C3=C(C2)Nc2ccccc2NC3c2ccc(NC(C)=O)cc2)cc1 (configuration not stated)	> 100 µM (inactive)

Structure (SMILES)	EC50
COc1ccc(C2CC(=O)C3=C(C2)Nc2ccccc2NC3c2cccc(Oc3ccccc3)c2)cc1OC (configuration not stated)	8.07 µM
O=C1CC(c2ccccc2)CC2=C1C(c1ccc(Cl)cc1Cl)Nc1ccccc1N2 (configuration not stated)	> 100 µM (inactive)
CCN(CC)c1ccc(C2Nc3ccccc3NC3=C2C(=O)CC(c2ccc(OC)cc2)C3)cc1 (configuration not stated)	8.53 µM
CSc1ccc(C2Nc3ccccc3NC3=C2C(=O)CC(c2ccccc2)C3)cc1 (configuration not stated)	13.9 µM
COc1ccc(C2CC(=O)C3=C(C2)Nc2ccccc2NC3c2c(F)cccc2Cl)cc1 (configuration not stated)	13.5 µM
COc1ccc(C2CC(=O)C3=C(C2)Nc2ccccc2NC3c2ccc(C(C)C)cc2)cc1 (configuration not stated)	8.22 µM
COc1ccc(C2CC(=O)C3=C(C2)Nc2ccccc2NC3c2ccccc2C(F)(F)F)cc1OC (configuration not stated)	17.4 µM
COc1ccc(C2CC(=O)C3=C(C2)Nc2ccccc2NC3c2ccc(C)cc2)cc1OC (configuration not stated)	28.1 µM
COc1ccc(C2CC(=O)C3=C(C2)Nc2ccccc2NC3c2ccc(-c3ccccc3)cc2)cc1OC (configuration not stated)	14.7 µM
CCOc1cc(C2Nc3ccccc3NC3=C2C(=O)CC(c2ccc(OC)cc2)C3)cc(Cl)c1O (configuration not stated)	23.5 µM
COc1ccc(C2CC(=O)C3=C(C2)Nc2ccccc2NC3c2cccc(C(F)(F)F)c2)cc1OC (configuration not stated)	16.6 µM
COc1ccc(C2CC(=O)C3=C(C2)Nc2ccccc2NC3c2c(F)cccc2F)cc1 (configuration not stated)	33 µM
CC(C)Oc1ccccc1C1Nc2ccccc2NC2=C1C(=O)CC(c1ccc(Cl)cc1)C2 (configuration not stated)	6.03 µM
COc1ccc(C2CC(=O)C3=C(C2)Nc2ccccc2NC3c2ccccc2[N+](=O)[O-])cc1OC (configuration not stated)	36.8 µM
O=C1CC(c2ccccc2)CC2=C1C(c1cccc3ccccc13)Nc1ccccc1N2 (configuration not stated)	16 µM
COc1ccc(C2CC(=O)C3=C(C2)Nc2ccccc2NC3c2ccc(F)c(F)c2)cc1 (configuration not stated)	20.9 µM
COc1ccc(C2CC(=O)C3=C(C2)Nc2ccccc2NC3c2ccc(O)cc2)cc1 (configuration not stated)	> 100 µM (inactive)
CCN(CC)c1ccc(C2Nc3ccccc3NC3=C2C(=O)CC(c2ccccc2)C3)cc1 (configuration not stated)	7.15 µM
